Reference: patent publication US8933232B2, “1,3,4-oxadiazole and 1,3,4-thiadiazole beta-lactamase inhibitors” (priority 2012, dated 2015)
Where a name gives a salt, the structure may show the parent alone.

System: bacterial strains that express KPC β-lactamases
Assay: Synergy MIC / standard BLI potentiation MIC assay against strains expressing KPC β-lactamases
Type: cell-based
Conditions: in the presence of a β-lactam; comparator Avibactam
Method: The experimental protocol was performed according to Clinical and Laboratory Standards Institute (CLSI) guidelines with modifications as described below (CLSI guidelines can be derived from the CLSI document M07-A9 published in January 2012: “Methods for Dilution Antimicrobial Susceptibility Tests for Bacteria That Grow Aerobically; Approved Standard-Ninth Edition”).
To prepare for MIC testing, frozen glycerol stocks of clinical isolates (Klebsiella pneumoniae, Eschericia coli, Enterobacter spp, Citrobacter spp, or Pseudomonas aeruginosa) were used to streak for isolated colonies on rich, non-selective, tryptic soy agar containing 5% sheep's blood (TSAB). Frozen glycerol stocks of laboratory engineered, isogenic E. coli strains, which contain cloned β-lactamase expressing plasmids were used to streak for isolated colonies on rich, selective LB agar supplemented with 25 μg/mL tetracycline to maintain the plasmid. All strains were incubated at 37° C. for 18-24 hrs.
On the day of testing, primary cultures were started by scraping off 5-10 colonies from the TSAB plates containing clinical strains or the tetracycline supplemented LB plates containing engineered strains. The clinical strain material was suspended in ˜5 mL of cation adjusted Mueller Hinton Broth (CAMHB) in 14 mL culture tubes. The engineered strain material was suspended in CAMHB (supplemented with 25 μg/mL tetracycline) in 14 mL culture tubes. All strains were incubated at 37° C. with aeration (200 rpm) for ˜2 hrs until the optical density at 600 nm (OD600) was >0.1.
The two compound components of the assay were each diluted in CAMHB and added to the 96-well broth microdilution assay plates. 50 μL of the β-lactam was added to each well of the assay plate in 2-fold dilutions with final concentrations ranging from 128 to 0.13 μg/mL. 25 μL, of the BLI compound was added to all wells in the broth microdilution plates at a final concentration of 4 μg/mL. Inoculum cultures were prepared by standardizing the primary cultures to OD600=0.1 and then adding 20 μL of the adjusted primary culture per 1 mL CAMHB for clinical strains or CAMHB (supplemented with tetracycline at 100 μg/mL) for engineered strains, so that the final inoculum density was ˜10^5 colony forming units per milliliter. Diluted inoculum cultures were used to inoculate 25 μl, per well in 96-well broth microdilution assay plates. The final volume of each well was 100 μL and contained a β-lactam at different concentrations, a BLIcompound at 4 μg/mL concentration, the bacterial culture at an OD600 of approximately 0.001 and when necessary tetracycline at 25 μg/mL.
Plates were incubated for 18-20 hours at 37° C. with aeration (200 rpm). Following incubation, growth was confirmed visually placing plates over a viewing apparatus (stand with a mirror underneath) and then OD600 was measured using a SpectraMax 340PC384 plate reader (Molecular Devices, Sunnyvale, Calif.). Growth was defined as turbidity that could be detected with the naked eye or achieving minimum OD600 of 0.1. MIC values were defined as the lowest concentration producing no visible turbidity.
The synergy MIC (sMIC) assay determines the concentration of the BLI required to potentiate the activity of a fixed concentration of a β-lactam antibiotic against β-lactamase producing bacterial strains. The experimental protocol was performed according to Clinical and Laboratory Standards Institute (CLSI) guidelines with modifications as described below (CLSI guidelines can be derived from the CLSI document M07-A9 published in January 2012: “Methods for Dilution Antimicrobial Susceptibility Tests for Bacteria That Grow Aerobically; Approved Standard-Ninth Edition”). […]

| Structure (SMILES) | more active than Avibactam for at least one bacterial strain that expresses KPC β-lactamase and/or better spectrum of activity against KPC strains |
| --- | --- |
| O=C1N2C[C@@H](CC[C@H]2c2nnc(CCN3CCNCC3)o2)N1OS(=O)(=O)O [Compound 776, (2S,5R)-7-oxo-2-(5-(2-(piperazin-1-yl)ethyl)-1,3,4-oxadiazol-2-yl)-1,6-diazabicyclo[3.2.1]octan-6-yl hydrogen sulfate] | more active than Avibactam |
| N=C(N)NC[C@H](O)c1nnc([C@@H]2CC[C@@H]3CN2C(=O)N3OS(=O)(=O)O)o1 [Compound 732, (2S,5R)-2-(5-((S)-2-guanidino-1-hydroxyethyl)-1,3,4-oxadiazol-2-yl)-7-oxo-1,6-diazabicyclo[3.2.1]octan-6-yl hydrogen sulfate] | more active than Avibactam |
| N=C(N)NCCc1nnc([C@@H]2CC[C@@H]3CN2C(=O)N3OS(=O)(=O)O)s1 [Compound 794, (2S,5R)-2-(5-(2-guanidinoethyl)-1,3,4-thiadiazol-2-yl)-7-oxo-1,6-diazabicyclo[3.2.1]octan-6-yl hydrogen sulfate] | more active than Avibactam |
| N=C(N)N[C@H]1C[C@@H](c2nnc([C@@H]3CC[C@@H]4CN3C(=O)N4OS(=O)(=O)O)o2)C1 [Compound 749, 2S,5R)-2-(5-((1s,3R)-3-guanidinocyclobutyl)-1,3,4-oxadiazol-2-yl)-7-oxo-1,6-diazabicyclo[3.2.1]octan-6-yl hydrogen sulfate] | more active than Avibactam |
| N=C(N)NCC1(c2nnc([C@@H]3CC[C@@H]4CN3C(=O)N4OS(=O)(=O)O)o2)CC1 [Compound 723, (2S,5R)-2-(5-(1-(guanidinomethyl)cyclopropyl)-1,3,4-oxadiazol-2-yl)-7-oxo-1,6-diazabicyclo[3.2.1]octan-6-yl hydrogen sulfate] | more active than Avibactam |
| NC1CC(NCc2nnc([C@@H]3CC[C@@H]4CN3C(=O)N4OS(=O)(=O)O)o2)C1 (stereo partly drawn) [Compound 755, (2S,5R)-2-(5-(((3-aminocyclobutyl)amino)methyl)-1,3,4-oxadiazol-2-yl)-7-oxo-1,6-diazabicyclo[3.2.1]octan-6-yl hydrogen sulfate] | more active than Avibactam |
| C[n+]1ccc(-c2nnc([C@@H]3CC[C@@H]4CN3C(=O)N4OS(=O)(=O)[O-])o2)cc1 [Compound 782, (2S,5R)-2-(5-(1-methylpyridin-1-ium-4-yl)-1,3,4-oxadiazol-2-yl)-7-oxo-1,6-diazabicyclo[3.2.1]octan-6-yl sulfate] | more active than Avibactam |
| N=C(N)N1CC(c2nnc([C@@H]3CC[C@@H]4CN3C(=O)N4OS(=O)(=O)O)o2)C1 [Compound 709, (2S,5R)-2-(5-(1-carbamimidoylazetidin-3-yl)-1,3,4-oxadiazol-2-yl)-7-oxo-1,6-diazabicyclo[3.2.1]octan-6-yl hydrogen sulfate] | more active than Avibactam |
| O=C1N2C[C@@H](CC[C@H]2c2nnc(CCNC3CCNCC3)o2)N1OS(=O)(=O)O [Compound 770, (2S,5R)-7-oxo-2-(5-(2-(piperidin-4-ylamino)ethyl)-1,3,4-oxadiazol-2-yl)-1,6-diazabicyclo[3.2.1]octan-6-yl hydrogen sulfate] | more active than Avibactam |
| N=C1NCC(c2nnc([C@@H]3CC[C@@H]4CN3C(=O)N4OS(=O)(=O)O)o2)N1 (stereo partly drawn) [Compound 767, (2S,5R)-2-(5-(2-iminoimidazolidin-4-yl)-1,3,4-oxadiazol-2-yl)-7-oxo-1,6-diazabicyclo[3.2.1]octan-6-yl hydrogen sulfate] | more active than Avibactam |
| N[C@H]1CC[C@@H](c2nnc([C@@H]3CC[C@@H]4CN3C(=O)N4OS(=O)(=O)O)o2)C1 [Compound 768, (2S,5R)-2-(5-((1R,3S)-3-aminocyclopentyl)-1,3,4-oxadiazol-2-yl)-7-oxo-1,6-diazabicyclo[3.2.1]octan-6-yl hydrogen sulfate] | more active than Avibactam |
| N=C(N)NC1CC(Cc2nnc([C@@H]3CC[C@@H]4CN3C(=O)N4OS(=O)(=O)O)o2)C1 (stereo partly drawn) [Compound 752, (2S,5R)-2-(5-(β-guanidinocyclobutyl)methyl)-1,3,4-oxadiazol-2-yl)-7-oxo-1,6-diazabicyclo[3.2.1]octan-6-yl hydrogen sulfate] | more active than Avibactam |
| O=C1N2C[C@@H](CC[C@H]2c2nnc(CCNCCO)o2)N1OS(=O)(=O)O [Compound 736, (2S,5R)-2-(5-(2-((2-hydroxyethyl)amino)ethyl)-1,3,4-oxadiazol-2-yl)-7-oxo-1,6-diazabicyclo[3.2.1]octan-6-yl hydrogen sulfate] | more active than Avibactam |
| N[C@H]1C[C@@H](CCc2nnc([C@@H]3CC[C@@H]4CN3C(=O)N4OS(=O)(=O)O)o2)C1 [Compound 754, (2S,5R)-2-(5-(2-((1s,3S)-3-aminocyclobutyl)ethyl)-1,3,4-oxadiazol-2-yl)-7-oxo-1,6-diazabicyclo[3.2.1]octan-6-yl hydrogen sulfate] | more active than Avibactam |
| N=C(N)NCc1nnc([C@@H]2CC[C@@H]3CN2C(=O)N3OS(=O)(=O)O)s1 [Compound 721, (2S,5R)-2-(5-(guanidinomethyl)-1,3,4-thiadiazol-2-yl)-7-oxo-1,6-diazabicyclo[3.2.1]octan-6-yl hydrogen sulfate] | more active than Avibactam |
| O=C1N2C[C@@H](CC[C@H]2c2nnc(C3CCNCC3)o2)N1OS(=O)(=O)O [Compound 711, (2S,5R)-7-oxo-2-(5-(piperidin-4-yl)-1,3,4-oxadiazol-2-yl)-1,6-diazabicyclo[3.2.1]octan-6-yl hydrogen sulfate] | more active than Avibactam |
| O=C1N2C[C@@H](CC[C@H]2c2nnc(CCCC3CNC3)o2)N1OS(=O)(=O)O [Compound 743, (2S,5R)-2-(5-(3-(azetidin-3-yl)propyl)-1,3,4-oxadiazol-2-yl)-7-oxo-1,6-diazabicyclo[3.2.1]octan-6-yl hydrogen sulfate] | more active than Avibactam |
| N=C(N)NCC(O)Cc1nnc([C@@H]2CC[C@@H]3CN2C(=O)N3OS(=O)(=O)O)o1 (stereo partly drawn) [Compound 730, (2S,5R)-2-(5-(3-guanidino-2-hydroxypropyl)-1,3,4-oxadiazol-2-yl)-7-oxo-1,6-diazabicyclo[3.2.1]octan-6-yl hydrogen sulfate] | more active than Avibactam |
| NCc1nnc([C@@H]2CC[C@@H]3CN2C(=O)N3OS(=O)(=O)O)o1 [Compound 702, (2S,5R)-2-(5-(aminomethyl)-1,3,4-oxadiazol-2-yl)-7-oxo-1,6-diazabicyclo[3.2.1]octan-6-yl hydrogen sulfate] | more active than Avibactam |
| O=C1N2C[C@@H](CC[C@H]2c2nnc([C@H]3[C@@H]4CNC[C@@H]43)o2)N1OS(=O)(=O)O [Compound 740, (2S,5R)-2-(5-(3-azabicyclo[3.1.0]hexan-6-yl)-1,3,4-oxadiazol-2-yl)-7-oxo-1,6-diazabicyclo[3.2.1]octan-6-yl hydrogen sulfate] | more active than Avibactam |
